From patent EP0332295A2, “Novel imidazole derivative” (priority 1988, dated 1989)

How the values were obtained:
[1] = system: mice; experiment: Anti-hypoxia action (hypobaric hypoxia, existence time at 180 mmHg, life prolongation ratio); format: in vivo; conditions: male ddy mice, administered in the abdominal cavity at 25 mg/kg, 30 minutes before pressure reduction to 180 mmHg, ratio of existence time to saline control (cut-off 15 minutes); for response vs control in vivo at 25 mg/kg: Mus musculus, ip
Description: With respect to each of the above-mentioned compounds (compounds Nos. 1 through 54), the anti-hypoxia action was tested according to the following method and was evaluated by the life prolongation ratio.
Male mice if the ddy-line, which were 5 to 8 weeks old, were used as test animals, and they were divided into groups, each consisting of 7 to 10 mice. The compound to be tested was dissolved in a physiological saline solution. If the compound to be tested was insoluble, the compound was suspended in 1% gum arabic. The solution or suspension was administered in the abdominal cavity at a does of 25 mg/kg and when 30 minutes had passed from the point of the administration, the mice were independently placed one by one into a desiccator (capacity = 1 liter) and the pressure in the desiccator was reduced to 180 mmHg by a vacuum pump.
The period of from the point of initiation of the reduction of the pressure to the point of the stop of breathing was regarded as the existence time. When the mouse lived for more than 15 minutes, the calculation was done while regarding the existence time as being 15 minutes.
The significant difference test of the existence time was carried out according to the student t-test method using controls to which a physiological saline solution alone had been administered. The ratio of the existence time of the sample-administered group to the existence time of the physiological saline solution-administered control group was calculated as the life prolongation ratio.

[2] = system: mice; experiment: as above; format: in vivo; conditions: Mus musculus, ip, male ddy mice, 30 minutes before pressure reduction to 180 mmHg, ratio of existence time to saline control; for response vs control in vivo at 12.5 mg/kg: administration dose = 12.5 mg/kg in the abdominal cavity; for response vs control in vivo at 50 mg/kg: administration dose = 50 mg/kg in the abdominal cavity

Row | Structure (SMILES) | response vs control in vivo at 25 mg/kg [1] [%] | further results
1 | CN(C)C(=O)n1cnc(Cc2ccccc2)c1 [compound 1, 4-benzyl-1-(N,N-dimethylcarbamoyl)imidazole] | 85 | 
2 | Cc1cccc(C)c1Cc1cn(C(=O)N(C)C)cn1 [compound 2] | 305 | 
3 | Cc1cc(C)c(Cc2cn(C(=O)N(C)C)cn2)c(C)c1 [compound 4] | 184 | 
4 | Cc1cccc(C)c1Cc1cn(C(=O)N(C)C(C)C)cn1 [compound 9] | 466 | 
5 | Cc1cccc(C)c1Cc1cn(C(=O)N(C)C2CCCCC2)cn1 [compound 10] | 253 | 
6 | C=CCN(C)C(=O)n1cnc(Cc2c(C)cccc2C)c1 [compound 11] | 255 | 
7 | CON(C)C(=O)n1cnc(Cc2c(C)cccc2C)c1 [compound 12] | 109 | 
8 | CCN(CC)C(=O)n1cnc(Cc2c(C)cccc2C)c1 [compound 13] | 281 | 
9 | Cc1cccc(C)c1Cc1cn(C(=O)N2CCCCC2)cn1 [compound 14] | 270 | 
10 | Cc1cccc(C)c1Cc1cn(C(=O)N2CCOCC2)cn1 [compound 17] | 165 | 
11 | CCOC(=O)n1cnc(Cc2c(C)cccc2C)c1 [compound 18] | 182 | 
12 | CN(C)C(=O)n1cnc(C[n+]2ccccc2)c1 [compound 19] |  | Life Prolongation Ratio [1]: 1.09
13 | Cc1cccc(C)c1Cc1cn(C(=S)N(C)C)cn1 [compound 20] | 243 | 
14 | CN(C)C(=O)Sc1nc(-c2ccccc2)c[nH]1 [compound 21, 2-(N,N-dimethylcarbamoylthio)-4-phenylimidazole] | 283 | 
15 | CN(C)C(=O)Sc1nc(-c2ccccc2)cn1C [compound 22] | 230 | 
16 | CCn1cc(-c2ccccc2)nc1SC(=O)N(C)C [compound 23] | 264 | 
17 | CCCn1cc(-c2ccccc2)nc1SC(=O)N(C)C [compound 24] | 163 | 
18 | CC(C)n1cc(-c2ccccc2)nc1SC(=O)N(C)C [compound 25] | 119 | 
19 | CN(C)C(=O)Sc1nc(-c2ccccc2)cn1C1CCCCC1 [compound 26] | 132 | 
20 | CN(C)C(=O)Sc1nc(-c2ccccc2)cn1-c1ccccc1 [compound 27] | 146 | 
21 | CN(C)C(=O)Sc1nc(-c2ccccc2)cn1-c1ccc([N+](=O)[O-])cn1 [compound 28, 2-(N,N-dimethylcarbamoylthio)-1-(5-nitropyridinyl)-4-phenylimidazole] | 102 | 
22 | CN(C)C(=O)Sc1nc(-c2ccccc2)cn1-c1ncccc1[N+](=O)[O-] [compound 29] | 110 | 
23 | CN(C)C(=O)Sc1nc(-c2ccccc2)cn1C(=O)N(C)C [compound 30, 1-(N,N-dimethylcarbamoyl)-2-(N,N-dimethylcarbamoylthio)-4-phenylimidazole] | 115 | 
24 | CCOC(=O)n1cc(-c2ccccc2)nc1SC(=O)N(C)C [compound 31] | 123 | 

Row | Structure (SMILES) | response vs control in vivo at 25 mg/kg [1] [%] | further results
25 | CC(=O)n1cc(-c2ccccc2)nc1SC(=O)N(C)C [compound 32] | 281 | 
26 | CC(=O)n1cc(-c2ccccc2)nc1SC(=O)N(C)C(C)C [compound 33] | 127 | 
27 | CCN(CC)C(=O)Sc1nc(-c2ccccc2)c[nH]1 [compound 34] |  | response vs control in vivo at 12.5 mg/kg [2]: 100%
28 | CCCN(CCC)C(=O)Sc1nc(-c2ccccc2)c[nH]1 [compound 35] |  | response vs control in vivo at 12.5 mg/kg [2]: 87%
29 | O=C(Sc1nc(-c2ccccc2)c[nH]1)N1CCCC1 [compound 36] |  | response vs control in vivo at 12.5 mg/kg [2]: 94%
30 | O=C(Sc1nc(-c2ccccc2)c[nH]1)N1CCCCC1 [compound 37] |  | response vs control in vivo at 12.5 mg/kg [2]: 85%
31 | O=C(Sc1nc(-c2ccccc2)cn1C(=O)N1CCCCC1)N1CCCCC1 [compound 38] | 113 | 
32 | O=C(Sc1nc(-c2ccccc2)c[nH]1)N1CCOCC1 [compound 39] |  | response vs control in vivo at 12.5 mg/kg [2]: 104%
33 | O=C(Sc1nc(-c2ccccc2)c[nH]1)N1CCSCC1 [compound 40] |  | response vs control in vivo at 12.5 mg/kg [2]: 93%
34 | O=C(Sc1nc(-c2ccccc2)c[nH]1)N1CCCc2ccccc21 [compound 41] |  | response vs control in vivo at 12.5 mg/kg [2]: 76%
35 | Cc1[nH]c(SC(=O)N(C)C)nc1-c1ccccc1 [compound 42] | 192 | 
36 | CCc1[nH]c(SC(=O)N(C)C)nc1-c1ccccc1 [compound 43] | 121 | 
37 | CCOC(=O)c1[nH]c(SC(=O)N(C)C)nc1-c1ccccc1 [compound 44] | 143 | 
38 | Cc1ccccc1-c1c[nH]c(SC(=O)N(C)C)n1 [compound 45] | 192 | 
39 | Cc1ccc(-c2c[nH]c(SC(=O)N(C)C)n2)cc1 [compound 46] |  | response vs control in vivo at 12.5 mg/kg [2]: 95%
40 | COc1ccc(-c2c[nH]c(SC(=O)N(C)C)n2)cc1 [compound 47] | 165 | 
41 | CN(C)C(=O)Sc1nc(-c2ccc(Cl)cc2)c[nH]1 [compound 48] |  | response vs control in vivo at 12.5 mg/kg [2]: 115%
42 | CN(C)C(=O)Sc1nc(-c2ccc(-c3ccccc3)cc2)c[nH]1 [compound 49] | 127 | 
43 | CN(C)C(=O)Sc1nccn1-c1ccccc1 [compound 50] | 127 | 
44 | CN(C)C(=O)Sc1nccn1-c1ccc([N+](=O)[O-])cn1 [compound 51] |  | response vs control in vivo at 50 mg/kg [2]: 245%
45 | CN(C)C(=O)Sc1nccn1-c1ncccc1[N+](=O)[O-] [compound 52] |  | response vs control in vivo at 50 mg/kg [2]: 192%
46 | Cn1c(=O)sc2nc(-c3ccccc3)cn2c1=O [compound 53, 3-methyl-7-phenyl-1,3,5-thiadiazino[3,2-a]imidazole-2,4(3H)-dione] | 145 | 
47 | CCn1c(=O)sc2nc(-c3ccccc3)cn2c1=O [compound 54] | 137 | 
